# According to patent US20030229113A1, “Keratinocyte growth inhibitors and hydroxamic acid derivatives” (priority 2003, published 2003):
# pIC50: −log10 of the molar value. Where two headings read alike, the source gives them in different places.
# Key:
# [1] = test system: epidermal hyperplasia induced by TPA; experiment: TPA-induced epidermal hyperplasia on dorsal skin of mice; assay type: in vivo, male BALB/c mice; settings: ED50; topical in acetone at 1 minute, 24 and 48 hours after TPA; epidermal thickness 72 hours after TPA
# Method: After backs of male BALB/c mice were shaved, 20 micro 1 of TPA-acetone solution (50 μM) was applied to the dorsal skin surface in an area of ca. 1 cm^2. A volume of 20 micro 1 of test compound-acetone solution was applied to the same area a minute, 24 hours and 48 hours after TPA application (the treated group). In the non-treated group, acetone was applied instead of the test compound. In the control group, acetone was applied instead of TPA and the test compound. The mice were sacrificed, and the skin tissues treated with TPA or the test compound were excised 72 hours after TPA application. Then the tissues were fixed with 10% formalin and embedded in paraffin according to the conventional method. The vertical sections including the center of the TPA- or the test compound-treated area were prepared and they were stained by hematoxylin-eosin. The epidermal thickness was measured using an ocular microscope. The amount of the test compound required for achieving 50% inhibition against the mean epidermal thickness of the non-treated group (ED50) was calculated, wherein the mean epidermal thickness of the non-treated group was 100% and that of the control group was 0%.
# [2] = test system: solubilizing enzyme of HB-EGF; experiment: Inhibition of TPA-stimulated release of HB-EGF from HT-1080 transfectant expressing HB-EGF/alkaline phosphatase fusion protein; assay type: cell-based, human; settings: HT-1080 HB-EGF-AP transfectant, TPA 60 nM for 60 min, AP activity in conditioned medium (OD405)
# Method: Human fibrosarcoma HT-1080 stable transfectant expressing fusion protein of HB-EGF and human placental alkaline phosphatase (AP) were used for following experiments.
# The cultured transfectant was treated with Trypsin-EDTA solution, and suspended in Minimum Essential Medium (without phenol red; supplemented with 10% heat-inactivated fetal calf serum; MEM) at the concentration of 1×10^5 cells/ml. Each 0.2 ml of the cell suspension was dispensed into individual wells of 96 well microplate, and incubated overnight in the CO2 incubator (37° C.). After the incubation, the conditioned medium was removed, and the wells were washed once with 0.2 ml of phosphate buffered saline. The cells were treated with 0.1 ml of compound solution [compound solutions in dimethylsulfoxide (DMSO) were diluted 100 times with MEM] for 30 min at 37° C. Then the compound solutions were removed, and cells were treated with 0.2 ml of TPA solution (120 μM) of stock solution was diluted to 60 nM with MEM) containing same concentration of the compound for 60 min at 37° C. The cells treated same procedure without compound were used as control.
# After these treatments, each 0.1 ml of conditioned medium was transferred to individual wells of new 96 well microplate and incubated at 65° C. for 10 min to inactivate endogenous alkaline phosphatase. One hundred microliter of substrate solution (1 mg/ml of p-nitrophenyl phosphate in 0.01% magnesium chloride/1 M diethanolamine) for AP was added to each well and incubated for 120 min at room temperature in the dark. The OD405 of each well was measured with microplate reader. The IC50 values of the compounds were calculated from the concentration-inhibition curves.
# [3] = test system: re-epithelialization of skin wound; experiment: Re-epithelialization in mouse skin wound model; assay type: in vivo, male BALB/c mice; settings: 50% inhibition of re-epithelialization; applied to 6-mm wound once a day
# Method: Wound healing model was prepared according to the method described by Tsuboi, et al. [J. Dermatol., 19, 673-675 (1992)]. Briefly, after backs of male BALB/c mice were shaved, two full-thickness round wounds were prepared in parallel to anterior-posterior axis on the back of each mouse using a punch biopsy instrument (6-mm diameter). After the operation, a test compound dissolved or suspended in 0.1M phosphate-buffered saline containing 1.5% sodium carboxymethylcellulose (vehicle) was applied to each wound in a volume of 50 μl/wound. The wounds were left open. From the following day, the compound was applied to each wound once a day for 7 days (the treated group). In the control group, vehicle solution only was applied in the same manner. One day after the last application, mice were sacrificed and skin tissues around the anterior wound were excised. The tissues were fixed with 10% formalin and embedded in paraffin according to the conventional method. The sections were made perpendicularly to the anterior-posterior axis. Keratinocytes in the specimen were stained with an anti-keratin antibody. Measurements of wound size and epidermal migration were performed by using an image-analyzing software. Re-epithelialization was calculated as follows; [formula]
# The amount of the test compound required for achieving 50% inhibition against the mean re-epithelialization of the control group (ED50) was calculated.
pIC50 ([2]; read-out: IC50),Structure (SMILES),Amount of test compound required for 50% suppression of epidermal hyperplasia [1],ED50 [3],pIC50 [2]
6.51,"CCOc1ccc(S(=O)(=O)N2Cc3nccnc3CC2C(=O)NO)cc1 (single isomer, unassigned; (+)) [the compound(15), (+)-N-Hydroxy-6-(4-ethoxybenzenesulfonyl)-5,6,7,8-tetrahydropyrido[3,4-b]pyrazine-7-carboxamide]",370 10^−6 g/cm^2,5.2 10^−6 g/0.3 cm^2,–
6.39,"O=C(NO)C1Cc2nccnc2CN1S(=O)(=O)c1ccc(Oc2ccccc2)cc1 (single isomer, unassigned; (+)) [the compound(20), (+)-N-Hydroxy-6-(4-phenoxybenzenesulfonyl)-5,6,7,8-tetrahydropyrido[3,4-b]pyrazine-7-carboxamide]",27 10^−6 g/cm^2,9.7 10^−6 g/0.3 cm^2,–
6.29,"O=C(NO)C1Cc2nccnc2CN1S(=O)(=O)c1ccccc1 (single isomer, unassigned; (+)) [the compound(36), (+)-N-Hydroxy-6-benzenesulfonyl-5,6,7,8-tetrahydropyrido[3,4-b]pyrazine-7-carboxamide]",130 10^−6 g/cm^2,–,–
6.00,"CCCOc1ccc(S(=O)(=O)N2Cc3nccnc3CC2C(=O)NO)cc1 (single isomer, unassigned; (+)) [the compound(16), (+)-N-Hydroxy-6-(4-propoxybenzenesulfonyl)-5,6,7,8-tetrahydropyrido[3,4-b]pyrazine-7-carboxamide]",–,11.6 10^−6 g/0.3 cm^2,–
6.44,"COCCOc1ccc(S(=O)(=O)N2Cc3nccnc3CC2C(=O)NO)cc1 (single isomer, unassigned; (+)) [the compound(19), (+)-N-Hydroxy-6-[4-(2-methoxyethoxy)benzenesulfonyl]-5,6,7,8-tetrahydropyrido[3,4-b]pyrazine-7-carboxamide]",200 10^−6 g/cm^2,16.6 10^−6 g/0.3 cm^2,–

# Further lines, the compound ahead of its results:
Structure (SMILES),pIC50 ([2]; read-out: IC50),Amount of test compound required for 50% suppression of epidermal hyperplasia [1],ED50 [3],pIC50 [2]
"COCCCOc1ccc(S(=O)(=O)N2Cc3nccnc3CC2C(=O)NO)cc1 (single isomer, unassigned; (+)) [the compound(14), (+)-N-Hydroxy-6-[4-(3-methoxypropoxy)benzenesulfonyl]-5,6,7,8-tetrahydropyrido[3,4-b]pyrazine-7-carboxamide]",7.28,300 10^−6 g/cm^2,9.8 10^−6 g/0.3 cm^2,–
"COc1ccc(S(=O)(=O)N2Cc3nccnc3CC2C(=O)NO)cc1 (single isomer, unassigned; (+)) [the compound(13), (+)-N-Hydroxy-6-(4-methoxybenzenesulfonyl)-5,6,7,8-tetrahydropyrido[3,4-b]pyrazine-7-carboxamide]",6.46,350 10^−6 g/cm^2,4.5 10^−6 g/0.3 cm^2,–
"CSCCCOc1ccc(S(=O)(=O)N2Cc3nccnc3CC2C(=O)NO)cc1 (single isomer, unassigned; (+)) [the compound(21), (+)-N-Hydroxy-6-[4-(3-methylthiopropoxy)benzenesulfonyl]-5,6,7,8-tetrahydropyrido[3,4-b]pyrazine-7-carboxamide]",–,230 10^−6 g/cm^2,11.0 10^−6 g/0.3 cm^2,7.00
